Results reported in patent publication US6042841A, “Cosmetic method of treating skin” (Unilever Home & Personal Care USA Division of Conopco, Inc., priority 1998, dated 2000).

Legend:
keratinocytes = experiment: Keratinocyte SDS viability assay (Neutral Red); format: cell-based; details: Keratinocyte; SDS 2 μg/ml, PA 0; 24 hours; n 8
Description: After incubating for 24 hours the medium was removed and the viability determined by the Neutral Red method.

decorin [1] = experiment: Dot blot assay for decorin synthesis in human dermal fibroblasts; format: cell-based; details: Homo sapiens, Fibroblast, 24 h; 1 μm (so in the source); p=0.035, n=4; comparative trial; read-out: Decorin synthesis relative to vehicle treated control value of 100
Description: Primary human foreskin fibroblasts at passage 2 (P2) were seeded into 12-well plates at 10000 cells/cm^2 and maintained for 24 hours in an atmosphere of 5% carbon dioxide and 4% oxygen in Dulbeccos Modified Eagles Medium (DMEM) supplemented with 10% foetal calf serum. After this time the cells were washed with serum free DMEM and then incubated in fresh serum free DMEM for a further 60 hours. The fibroblast monolayers were then washed again with serum free DMEM. Test reagents and vehicle controls were added to the cells in triplicate in a final volume of 0.4 ml/well fresh serum free DMEM and incubated for a further 24 hours. This fibroblast conditioned medium was either analysed immediately or snap frozen in liquid nitrogen and stored at -70° C. for future analysis. The cells were then counted and data from the dot-blot analysis subsequently standardised to cell number.
Samples of conditioned medium from dermal fibroblasts treated with vehicle (as a control) or test reagents were supplemented with 20 mM dithiothreitol (1:10 dilution of 200 mM stock solution) and 0.1% sodium dodecylsulphate (1:100 dilution of 10% stock solution), mixed well and then incubated at 75° C. for 2 minutes. A standard for the assay was generated by serial dilution of neat fibroblast conditioned medium from fibroblasts seeded at 10000 cells/cm^2 in a 175 cm^2 flask and maintained in serum free DMEM as described above. Assay samples were subsequently applied in triplicate to a prewetted sheet of Immobilon-P transfer membrane using the 96-well Bio-Dot Apparatus from Bio-Rad as described in the manufacturers guidelines. Approximately 200 μl of medium was applied per well. […] Dot intensity was assessed by computer-assisted image analysis using the quantification tools in ImageQuant™, standardised to cell number and the effects of various test reagents on decorin and procollagen-I synthesis were determined relative to a vehicle treated control value of 100 arbitrary units.

decorin [2] = experiment: Immunohistochemical analysis of decorin expression in photodamaged skin biopsies after topical retinoic acid; format: in vivo, human (women); details: for No. of Participants showing marked increase in expression of decorin: 0.05% retinoic acid topical
Text: (§1) Two groups of women were recruited with identical or nearly identical degrees of mild to moderate photodamage on each outer forearm. They were supplied with 0.05% retinoic acid in a moisturising base (Retinova®) and also with a colour matched moisturising cream with similar sensory characteristics (Dermacare® lotion), but no active ingredients, as a placebo control. Each participant of the two groups applied the Retinova® to one outer forearm and placebo (Dermacare®) to the other outer forearm. Group 1 applied the products daily to their outer forearms for 14 weeks and the Group 2 applied the products to their outer forearms for 28 weeks. At the end of the studies two full thickness 4 mm punch biopsies were taken from the treated areas of each forearm. Immunohistochemical analysis of the biopsy tissue taken from the participants was performed to identify the effect of retinoic acid treatment on the expression of the skin extracellular matrix components, decorin and procollagen-I, as compared with the placebo treated forearms. The following procedure was followed:
(§2) Antibody dilution buffer for wax sections was composed of Tris Buffered Saline (TBS), 3% bovine serum albumin (BSA), 0.05% Triton X-100 and 0.05% sodium azide. Primary antibodies for procollagen-I (amino terminal) were obtained from Chemicon International Inc. (cat# MAB 1912, rat IgGl) and used on wax sections at a dilution of 1:800, overnight at 4° C. after the section had been pre-treated with trypsin (0.5 mg/ml, 25 minutes, 37° C.). Primary antibodies for decorin were obtained from Biogenesis (rabbit polyclonal) and used on wax sections at a dilution of 1:800, overnight at 4° C. Anti-rat biotinylated secondary antibodies, obtained from DAKO (cat# E0468, rabbit polyclonal), were applied to wax sections at a dilution of 1:400. Anti-rabbit biotinylated secondary antibodies, obtained from Amersham (cat# RPN 1004, donkey polyclonal), were applied to wax sections at a dilution of 1:400. Streptavidin conjugated alkaline phosphatase, obtained from Zymed (cat# 43-4322), was used at a concentration of 1:2500. […]

procollagen-I = experiment: Immunohistochemical analysis of procollagen-I expression in photodamaged skin biopsies after topical retinoic acid; format: in vivo, human (women); details: for No. of Participants showing marked increase in expression of procollagen-I: 0.05% retinoic acid topical
Text: as §1, §2

ICAM = experiment: ICAM-1 assay, PMA-induced ICAM production in human skin fibroblasts; format: cell-based; details: PMA (10 nM)-treated; N 4
Description: Intracellular adhesion molecules (ICAM) and PEG2 production by human skin fibroblasts can be induced by the inflammatory stimulus PMA (phorbal myristate acetate). PMA represents an external stressor which induces oxidative stress and inflammatory responses in cells. This model is used to model inflammation in vivo.
Primary human foreskin fibroblasts at passage 2 (P2) were seeded into 96-well plates at 10000 cells/well and maintained for 24 hours in an atmosphere of 5% carbon dioxide in Dulbeccos Modified Eagles Medium (DMEM) supplemented with 10% foetal calf serum. […] Phorbal myristate acetate (PMA) (Sigma) was added to the media and the cells incubated for a further 24 hours. […] The fibroblasts/media were then analysed as described below immediately or snap frozen in liquid nitrogen and stored at -70° C. for future analysis. The cells were then counted and data from the dot-blot analysis subsequently standardised to cell number.
ICAM-1 assay: Media were discarded and cells washed with Dulbecco PBS. To the washed cells, 150 μl 0.1% Triton X-100 (Sigma) was added for 3 minutes to extract ICAM from cell membrane. The extracts were transferred to Eppendoff centrifuge tubes and centrifuged at 1000 g for 2 min to remove cell debris. A volume of 100 μl supernatant was used for ICAM assay. The soluble ICAM-1 was assessed with commercially available immunoenzymometric assay kit (R&D Systems). Concentrations of ICAM-1 in the samples were determined based on parallelly running standard curve.

[3] = Group 1 after 14 weeks, total 16 participants, daily
[4] = Group 2 after 28 weeks, total 15 participants
[5] = topical application of Retinova, vs placebo

CCCCCCCCCCCCOS(=O)(=O)[O-].[Na+] [SDS, sodium dodecyl sulphate, reference compound]
viability at 2 µg/mL (keratinocytes): 55.8%

CC1=C(/C=C/C(C)=C/C=C/C(C)=C/C(=O)O)C(C)(C)CCC1 [Retinoic Acid, retinoic acid]
activity at 1 µM (decorin [1]): 138 ± 14%
No. of Participants showing marked increase in expression of decorin (decorin [2]; [3]): 10
No. of Participants showing marked increase in expression of decorin (decorin [2]; [4]): 15
decorin expression in photodamaged skin (in words) (decorin [2]; [5]): marked upregulation
No. of Participants showing marked increase in expression of procollagen-I (procollagen-I; [3]): 9
No. of Participants showing marked increase in expression of procollagen-I (procollagen-I; [4]): 10
procollagen-I expression in photodamaged skin (in words) (procollagen-I; [5]): marked upregulation

CCCCCCCCCCCCCC(=O)O[C@@H]1[C@@H](C)[C@@]2(O)[C@@H](C=C(CO)C[C@]3(O)C(=O)C(C)=C[C@@H]23)[C@@H]2C(C)(C)[C@]12OC(C)=O [PMA, phorbal myristate acetate, reference compound]
ICAM (ICAM): 14.42 ± 1.86 ng/mL
